From patent US10787650B2, “Artificial bioluminescent enzymes” (NATIONAL INSTITUTE OF ADVANCED INDUSTRIAL SCIENCE AND …, priority 2015, dated 2020)
“Also recorded” adds a separate entry of the source.

Legend:
[1] = test system: ALuc16; experiment: Metal cation-driven optical intensities of ALuc16 (purified enzyme); format: biochemical; conditions: metal cation-free Tris-HCl buffer (pH 8.2, 0.05 M), nCTZ
Method: The metal cation-driven optical properties were estimated with ALuc16 (FIG. 6). A metal cation-free sample of ALuc16 was prepared beforehand as follows: we first generated a DNA construct of ALuc16 carrying a Strep-II tag at the C-terminus via PCR. The construct was then cloned into a pOPTHM vector (providing a cleavable N-terminal His6-MBP tag), and expressed in the bacterial strain Shuffle T7 Express (New England Biolabs) with 0.3 mM IPTG induction. […] The lysate was centrifuged at 18,000 rpm for 40 minutes, and then the supernatant was passed over a 5 mL HisTrap HP column (GE Healthcare). […] The eluted sample was dialyzed to a metal-cation-free Tris-HCl buffer (0.05 M, pH 8.2) at 4° C. for 24 hours, and finally adjusted to a concentration of 1 mg/ml by dilution. […] Meanwhile, the corresponding substrate solution carrying nCTZ (Promega) was diluted 100-fold with the cation-free Tris-HCl buffer (Solution B). 50 μL of Solution B was simultaneously injected into Solution A in the 96-well plate with a multichannel micropipette (Gilson). The microplate was immediately moved to an image analyzer (LAS-4000, FujiFilm) equipped with a cooled charge-coupled device (CCD) camera, and the optical intensities were simultaneously estimated in a precision mode. The measurements were conducted in triplicate (n=3). The optical images were analyzed with Multi Gauge V3.2 (FujiFilm). […] The experiment was conducted by the same method as that of FIG. 6. In the inset, the optical image taken with LAS-4000 (FujiFilm) is shown.

[2] = target: TPv2.4 (Homo sapiens, UniProt P42345); conditions: for luminescence intensity sustainability: compared with native coelenterazine; for bioluminescence intensity with TPv2.4: lysate of rapamycin-stimulated COS-7 cells, substrate 0.1 μg/μL
Method: COS-7 cells were cultured in a 96-well plate, and the cells were transiently transfected with the pcDNA3.1(+) vector encoding TP2.4. After that, the cells were cultured for 2 days. After being stimulated with 10^−6 M rapamycin for 4 hours, the cells in each well were lysed with a cell lysis buffer (50 μl) for 20 minutes. After that, an aliquot of the lysate (10 μL) was transferred to a 96-well transparent-bottom plate. Separately, about 10 kinds of coelenterazine analogs (substrates, 25 μg) were dissolved in 25 μL of ethanol. The solution was further 10-fold diluted with an assay buffer (Promega) to prepare a solution having a final concentration of 0.1 μg/μL. The solution was named substrate solution. 50 μL of the substrate solution was simultaneously introduced into the lysate solution on the plate using a multipipette, and the plate was immediately moved into an image analyzer (LAS-4000, FujiFilm), followed by optical measurement every 5 minutes in a 30-second integration time mode.
The coelenterazine analogs subjected to the measurement in this research were 9 kinds from “Coelenterazine Sampler Kit” of Promokine, i.e., native coelenterazine (nCTZ), coelenterazine h (CTZ h), coelenterazine f (CTZ f), coelenterazine i (CTZ i), coelenterazine n (CTZ n), coelenterazine cp (CTZ-cp), coelenterazine hcp (CTZ hcp), coelenterazine fcp (CTZ fcp), and coelenterazine ip (CTZ ip).

[3] = target: OLuc (Oplophorus gracilirostris, UniProt Q9GV45); conditions: cited from earlier work
[4] = test system: Fridericia luciferase; conditions: cited from earlier work
[5] = test system: ALuc16; experiment: Circular dichroism (CD) measurement of metal cation-mixed ALuc16; conditions: varying cation concentrations
Method: Circular dichroism (CD) measurement was further conducted for reasoning the cation-driven degradation of ALuc16 activities (FIG. 9). Samples were prepared by mixing varying concentrations of Pb(II) or Al(III) with column-purified and dialyzed ALuc16, and were measured with a CD spectrometer (JASCO, Japan) after preparation.

[6] = test system: ALuc16; experiment: Cation-driven long-term stability of optical intensities of ALuc16; format: biochemical; conditions: 60 minutes after substrate injection
Method: The long-term stability of optical intensities was estimated by the same method as that of FIG. 6(A) (FIG. 8(A)). The microplate was placed in the chamber of LAS-4000, and the optical intensities were monitored every 5 minutes, after substrate injection, for a duration of 60 minutes.

[7] = Proton-dependent optical intensities and optical stability of ALucs (COS-7 cell lysate); format: biochemical, African green monkey; conditions: for elevation of optical intensities at pH 7 as compared to pH 6: COS-7 lysate, nCTZ; for intensities as share of the initial intensities 20 minutes after substrate injection: pH 9, coelenterazine analog
Method: The proton-driven optical intensities of ALucs were calculated to help elucidate the proton-bioluminescence relationship (FIG. 4). […] The cells were cultured and lysed by the same method as that of FIG. 2(B). Then, 10 μL of the lysates in the plate were simultaneously mixed with 40 µL of the substrate solution, which was prepared by mixing a native coelenterazine (nCTZ) stock (FIG. 4(B)) with an aliquot of the universal buffer with the pH ranging from 4 to 9 (final concentration of the substrate: 0.1 mg/ml). Immediately after the substrate injection, the plate was moved into an image analyzer (LAS-4000, FujiFilm), and relative optical intensities were integrated for 30 seconds. The time course of the intensities was estimated every 5 minutes for 20 minutes (FIG. 4(D)).

[8] = Luminescence activity of novel artificial bioluminescent enzymes (COS-7 cell lysate); format: biochemical, African green monkey; conditions: COS-7 lysate, native coelenterazine
Method: African green monkey kidney-derived COS-7 cells were cultured using a 96-well microplate. The COS-7 cells were grown until occupying 90% of the bottom-surface area of the culture plate, and, as shown in FIG. 19 and FIG. 20, were each transiently transfected with a pcDNA 3.1(+) vector (Invitrogen) encoding each luminescent enzyme with a lipofection reagent (TransIT-LT1, Mirus). After that, the cells were further cultured for about 1 day. After the culture, cell lysates were prepared using a cell lysis agent (Lysis buffer, Promega), and 5 μL each of the cell lysates was taken from each well and transferred to a 96-well microplate for measurement. An assay buffer (50 μL) containing native coelenterazine was simultaneously added to each well using a multichannel pipette. Immediately after the addition of the assay buffer, the microplate was moved into the black box of an image analyzer (LAS-4000, FujiFilm), and luminescence images were measured with a CCD camera (FIG. 19 and FIG. 20).

Sequence of OLuc (Q9GV45 28-196): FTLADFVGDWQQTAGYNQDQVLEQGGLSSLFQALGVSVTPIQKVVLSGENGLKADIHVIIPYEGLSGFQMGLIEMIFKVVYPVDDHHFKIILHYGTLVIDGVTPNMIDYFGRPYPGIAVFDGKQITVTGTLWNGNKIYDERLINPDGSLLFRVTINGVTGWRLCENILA
Sequence of TPv2.4 (P42345 with tags, fused parts or gaps): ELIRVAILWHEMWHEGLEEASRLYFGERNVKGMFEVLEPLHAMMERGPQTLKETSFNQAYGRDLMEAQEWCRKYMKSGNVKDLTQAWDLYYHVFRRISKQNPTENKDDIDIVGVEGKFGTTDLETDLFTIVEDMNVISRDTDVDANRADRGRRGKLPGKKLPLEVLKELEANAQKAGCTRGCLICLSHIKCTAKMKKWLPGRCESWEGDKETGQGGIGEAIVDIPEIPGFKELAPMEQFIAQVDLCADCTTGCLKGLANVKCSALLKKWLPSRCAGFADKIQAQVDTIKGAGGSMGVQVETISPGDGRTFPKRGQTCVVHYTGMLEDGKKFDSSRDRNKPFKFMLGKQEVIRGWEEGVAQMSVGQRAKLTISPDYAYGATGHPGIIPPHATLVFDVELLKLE

Molecule: [Cl-].[Cl-].[Co+2] [Co(II)]
- effect on optical intensities (activities) of ALuc16 [1]: suppress

Molecule: coelenterazine n [CTZ n]
- initial luminescence intensity retained ([2]; 20 minutes after substrate injection): about 60%
- luminescence intensity sustainability [2]: longer than that of native coelenterazine

Molecule: [Cl][Cd][Cl] [Cd(II)]
- effect on optical intensity of OLuc [3]: inhibited the optical intensity

Molecule: [Cl][Mn][Cl] [Mn(II)]
- effect on optical intensities (activities) of ALuc16 [1]: boosting effect with Mn(II) was not observed
- effect on activities of Fridericia luciferase [4]: elevate

Molecule: [Cl-].[Cl-].[Zn+2] [Zn(II)]
- effect on optical intensity of OLuc [3]: inhibited the optical intensity
- effect on optical intensities (activities) of ALuc16 [1]: suppress

Molecule: [K+] [K^+]
- effect on optical intensities (activities) of ALuc16 [1]: little effect

Molecule: coelenterazine f [CTZ f]
- bioluminescence intensity with TPv2.4 [2]: strongest bioluminescence intensities

Molecule: [Cl][Al]([Cl])[Cl] [Al(III)]
- effect on structure of ALuc16 (CD spectra, 222 nm) [5]: α-helical portion is gradually decreased; also recorded: destroy the tertiary structure of ALuc16; also recorded: the structure of ALuc16 is denatured

Molecule: native coelenterazine [nCTZ]
- bioluminescence intensity with TPv2.4 [2]: strongest bioluminescence intensities

Molecule: [Na+] [Na^+]
- effect on optical intensities (activities) of ALuc16 [1]: little effect

Molecule: O=c1c(Cc2ccc(I)cc2)nc2c(Cc3ccccc3)[nH]c(-c3ccc(O)cc3)cn1-2 [CTZ i, coelenterazine i]
- luminescence half-life from substrate injection [2]: about 15 minutes
- luminescence intensity sustainability [2]: longer than that of native coelenterazine

Molecule: Oc1ccc(Cc2nc3c(CC4CCCC4)nc(-c4ccc(O)cc4)cn3c2O)cc1 [CTZ cp, coelenterazine cp]
- bioluminescence intensity with TPv2.4 [2]: weak luminescence intensities

Molecule: coelenterazine ip [CTZ ip]
- bioluminescence intensity with TPv2.4 [2]: weak luminescence intensities

Molecule: [Cl-].[Cl-].[Mg+2] [Mg(II)]
- effect on activities of Fridericia luciferase [4]: elevate
- effect on long-term stability of bioluminescence intensities [6]: seldom influences the long-term stability

Molecule: coelenterazine h [CTZ h]
- bioluminescence intensity with TPv2.4 [2]: strongest bioluminescence intensities

Molecule: Oc1ccc(-c2cn3c(O)c(Cc4ccccc4)nc3c(CC3CCCC3)n2)cc1 [CTZ hcp, coelenterazine hcp]
- bioluminescence intensity with TPv2.4 [2]: weak luminescence intensities

Molecule: Cr(VI)
- elevation of ALuc16 activities / optical intensities [1]: about 2 times

Molecule: Oc1ccc(-c2cn3c(O)c(Cc4ccc(F)cc4)nc3c(CC3CCCC3)n2)cc1 [CTZ fcp, coelenterazine fcp]
- bioluminescence intensity with TPv2.4 [2]: weak luminescence intensities

Molecule: [Cl][Cu][Cl] [Cu(II)]
- effect on optical intensity of OLuc [3]: inhibited the optical intensity
- effect on optical intensities (activities) of ALuc16 [1]: suppress

Molecule: N [NH4^+]
- effect on optical intensities (activities) of ALuc16 [1]: little effect

Molecule: [Li+] [Li^+]
- effect on optical intensities (activities) of ALuc16 [1]: little effect

B1: ALuc23: conventional artificial luciferase from the inventor's previous research, SEQ ID NO: 32 (protein)
chain: MMGIKVLFALICFALVQANPTENKDDIDIVGVEGKFGTTDLETDLFTIVEDMNVISRDTDVDANRADRGRRGKLPGKKLPLEVLKELEANAQKAGCTRGCLICLSHIKCTAKMKKWLPGRCESWEGDKETGQGGIGEAIVDIPEIPGFKELAPMEQFIAQVDLCADCTTGCLKGLANVKCSALLKKWLPSRCAGFADKIQAQVDTIKGAGGS
modifications: Synthetic Sequence - ALuc23
- elevation of optical intensities at pH 7 as compared to pH 6 [7]: about 5 fold
- intensities as share of the initial intensities 20 minutes after substrate injection [7]: 41%

B2: ALuc34: conventional artificial luciferase, SEQ ID NO: 35 (protein)
chain: MMGIKVLFALICFALVQANMMDYKDDDDKVGVEGKFGTTDLETDLFTIVEDMNVISRDTDVDANRADRGRRGKLPGKKLPLEVLKELEANAQKAGCTRGCLICLSHIKCTAKMKKWLPGRCESWEGDKETGQGGIGEAIVDIPEIPGFKELAPMEQFIAQVDLCADCTTGCLKGLANVKCSALLKKWLPSRCAGFADKIQAQVDTIKGAGGS
modifications: Synthetic Sequence - ALuc34
- elevation of optical intensities at pH 7 as compared to pH 6 [7]: about 5 fold
- intensities as share of the initial intensities 20 minutes after substrate injection [7]: 60%

B3: ALuc49: artificial luciferase, SEQ ID NO: 9 (protein)
chain: MMGIKVLFALVCLALVQAKPTEDEDEDDIVDVVGNFWAIGVDNDRDFTISADRGKLPGKKLPKEVLIEIEANAKKAGCTRGCLICLSKIKCTAKMKKWLPGRCHSYEGDKDTGQGGIGEPIVDAPEIPGFKDLTPMEQFIAQVDLCADCTTGCLKGLANVKCSALLKKWLPDRCASFADKIQKEVDYIKGLAGS
- luminescence intensities as compared to conventional ALucs (e.g., ALuc16 and ALuc30) [8]: even stronger luminescence intensities

B4: ALuc50: artificial luciferase, SEQ ID NO: 10 (protein)
chain: MMGIKVLFALVCLALVQAKPTEDEDEDDIVDVVGNFWAIGVDNDRDFTISADRGKLPGKKLPKEVLIEIEANAKKAGCTRGCLICLSKIKCTAKMKKWLPGRCHSYEGDKDTGQGGIGEPIVDAPEIPGFKDLTPMEQFIAQVDLCADCTTGCLKGLANVKCSALLKKWLPDRCASFADKIQKEVDFIKGLAGS
- luminescence intensities as compared to conventional ALucs (e.g., ALuc16 and ALuc30) [8]: even stronger luminescence intensities

B5: ALuc41: artificial luciferase, SEQ ID NO: 2 (protein)
chain: MMGIKVLFALVCLALVQAKPTEDEDEDDIVDVVGNFWAIGVDNDRDFTISADRGKLPGKKLPKEVLIEIEANAKKAGCTRGCLICLSKIKCTAKMKKWLPGRCHSYEGDKDTGQGGIGEPIVDAPEIPGFKDLTPMEQFIAQVDLCADCTTGCLKGLANVKCSALLKKWLPDRCASFADKIQKEVDTIKGLAGS
- luminescence intensities as compared to conventional ALucs (e.g., ALuc16 and ALuc30) [8]: relatively low luminescence intensities

B6: ALuc46: artificial luciferase, SEQ ID NO: 6 (protein)
chain: MMGIKVLFALVCLALVQAKPTEDEDEDDIVDVVGNFWAIGVDNDRDFTISADRGKLPGKKLPKEVLIEIEANAKKAGCTRGCLICLSKIKCTAKMKKWLPGRCHSYEGDKDTGQGGIGEPIVDAPEIPGFKDLTPMEQFIAQVDLCADCTTGCLKGLANVKCSALLKKWLPDRCASFADKIQSEVATIKGLAGS
- luminescence intensities as compared to conventional ALucs (e.g., ALuc16 and ALuc30) [8]: relatively low luminescence intensities

B7: ALuc47: artificial luciferase, SEQ ID NO: 7 (protein)
chain: MMGIKVLFALVCLALVQAKPTEDEDEDDIVDVVGNFWAIGVDNDRDFTISADRGKLPGKKLPKEVLIEIEANAKKAGCTRGCLICLSKIKCTAKMKKWLPGRCHSYEGDKDTGQGGIGEPIVDAPEIPGFKDLTPMEQFIAQVDLCADCTTGCLKGLANVKCSALLKKWLPDRCASFADKIQKEVGTIKGLLGS
- luminescence intensities as compared to conventional ALucs (e.g., ALuc16 and ALuc30) [8]: relatively low luminescence intensities
